Data taken from patent publication US10040791B2, “Isoxazole derivative as mutant isocitrate dehydrogenase 1 inhibitor” (Daiichi Sankyo Company, Limited, priority 2014, dated 2018).

Columns and labels:
IDH1R132C = IDH1R132C (Homo sapiens (Human), UniProt O75874, R132C); experiment: Inhibitory activity against IDH1R132C enzyme (NADPH detection, WST-8); format: biochemical; details: 10 nM, residual NADPH detected with WST-8, read-out: Test Example 1 IDH1 R132C IC50
[1] = tested on: HT1080 xenografted mice (IDH1R132C); experiment: 2-HG production inhibitory activity using HT1080 xenografted mice; format: in vivo, mouse; details: Mus musculus, HT-1080, po, 6 h, 2-HG production, HT1080 xenografted mice; read-out: Test Example 5 Ratio (%)
Procedure, shortened: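 Mice bearing HT1080 tumors received 75 mg/kg compound by oral gavage twice a day, three doses in total, at 10 mL/kg; vehicle-dosed mice were negative controls. Tumors were collected 6 h after the final dose, frozen, homogenized in methanol and centrifuged, and 2-HG was measured in the extracts.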

[2] = tested on: HT-1080 cells expressing IDH1R132C; experiment: 2-HG production inhibitory activity using HT1080 cell; format: cell-based, human; details: Homo sapiens, HT-1080; 2-HG production, HT1080 cells; read-out: Test Example 3 IC50
Experimental: Then, 100 μL of growth medium B was added to each well, further 25 μL of a solution of each compound diluted to a predetermined concentration with growth medium B was added to each well, and the cells were incubated at 37° C. for 2 days under 5% CO2. […] Then, 150 μL of ultrapure water was further added to each well, and the mixture was stirred by pipetting and stored at −20° C.
The preserved solutions were thawed at room temperature.

Sequence of IDH1R132C (O75874 whole entry R132C): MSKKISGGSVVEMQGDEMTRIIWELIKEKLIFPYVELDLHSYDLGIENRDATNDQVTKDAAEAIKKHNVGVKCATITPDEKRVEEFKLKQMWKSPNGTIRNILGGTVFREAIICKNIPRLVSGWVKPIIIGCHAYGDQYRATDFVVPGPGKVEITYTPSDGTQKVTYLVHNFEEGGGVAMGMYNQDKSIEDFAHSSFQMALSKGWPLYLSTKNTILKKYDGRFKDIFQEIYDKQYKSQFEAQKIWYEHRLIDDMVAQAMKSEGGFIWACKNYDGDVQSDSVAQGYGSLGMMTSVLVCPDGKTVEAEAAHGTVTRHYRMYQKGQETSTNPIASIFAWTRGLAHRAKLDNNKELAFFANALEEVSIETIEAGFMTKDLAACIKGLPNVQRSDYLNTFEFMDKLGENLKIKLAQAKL

| Structure (SMILES) | IC50 (IDH1R132C) | response vs control in vivo at 75 mg/kg [1] | IC50 [2] |
| --- | --- | --- | --- |
| C=CC(=O)N1CC2(CC2)N(c2onc(-c3c(Cl)cccc3Cl)c2C(=O)n2ccc3c(/C=C/C(=O)O)cccc32)C[C@H]1C [Example 155, (2E)-3-[1-({5-[(6R)7-Acryloyl-6-methyl-4,7-diazaspiro[2.5]oct-4-yl]-3-(2,6-dichlorophenyl)-1,2-oxazol-4-yl}carbonyl)-1H-indol-4-yl]prop-2-enoic acid] | 122 nM | 41% | 55 nM |
| C=CC(=O)N1CC2(CC2)N(c2onc(-c3c(F)cccc3Cl)c2C(=O)n2ccc3c(/C=C/C(=O)O)cccc32)C[C@H]1C [Example 156, (2E)-3-[1-({5-[(6R)7-Acryloyl-6-methyl-4,7-diazaspiro[2.5]oct-4-yl]-3-(2-chloro-6-fluorophenyl)-1,2-oxazol-4-yl}carbonyl)-1H-indol-4-yl]prop-2-enoic acid] | 167 nM | 60% | 167 nM |
| C=CC(=O)N1CCN(c2onc(-c3c(F)cccc3Cl)c2C(=O)n2ccc3c(/C=C/C(=O)O)cccc32)C(C)(C)C1 [Example 157, (2E)-3-(1-{[5-(4-Acryloyl-2,2-dimethylpiperazin-1-yl)-3-(2-chloro-6-fluorophenyl)-1,2-oxazol-4-yl]carbonyl}-1H-indol-4-yl)prop-2-enoic acid] | 256 nM | 89% | 265 nM |
| C=CC(=O)N1CC2(CC2)N(c2onc(-c3c(Cl)cccc3OC)c2C(=O)n2ccc3c(/C=C/C(=O)O)cccc32)C[C@H]1C [Example 158, (2E)-3-[1-({5-[(6R)7-Acryloyl-6-methyl-4,7-diazaspiro[2.5]oct-4-yl]-3-(2-chloro-6-methoxyphenyl)-1,2-oxazol-4-yl}carbonyl)-1H-indol-4-yl]prop-2-enoic acid] | 179 nM | 62% | 178 nM |
| C=CC(=O)N1C[C@@H](C)N(c2onc(-c3c(Cl)cccc3Cl)c2C(=O)n2ccc3c(/C=C/C(=O)O)cccc32)C2(CC2)C1 [Example 159, (2E)-3-[1-({5-[(5R)7-Acryloyl-5-methyl-4,7-diazaspiro[2.5]oct-4-yl]-3-(2,6-dichlorophenyl)-1,2-oxazol-4-yl}carbonyl)-1H-indol-4-yl]prop-2-enoic acid] | 84 nM | 30% | 138 nM |
| C=CC(=O)N1CC2(CC2)N(c2onc(-c3c(F)cccc3Cl)c2C(=O)n2ccc3c(/C=C/C(=O)O)cccc32)C[C@H]1CC [Example 160, (2E)-3-[1-({5-[(6R)7-Acryloyl-6-ethyl-4,7-diazaspiro[2.5]oct-4-yl]-3-(2-chloro-6-fluorophenyl)-1,2-oxazol-4-yl}carbonyl)-1H-indol-4-yl]prop-2-enoic acid] | 81 nM | 47% | 106 nM |
| C=CC(=O)N1CC2(CC2)N(c2onc(-c3c(Cl)cccc3OC)c2C(=O)n2ccc3c(/C=C/C(=O)O)cccc32)C[C@H]1CC [Example 161, (2E)-3-[1-({5-{(6R)7-Acryloyl-6-ethyl-4,7-diazaspiro[2.5]oct-4-yl]-3-(2-chloro-6-methoxyphenyl)-1,2-oxazol-4-yl}carbonyl)-1H-indol-4-yl]prop-2-enoic acid] | 98 nM | 72% | 121 nM |
| C=CC(=O)N1CC2(CC2)N(c2onc(-c3c(Cl)cccc3Cl)c2C(=O)n2ccc3c(/C=C/C(=O)O)cccc32)C[C@H]1CC [Example 163, (2E)-3-[1-({5-[(6R)7-Acryloyl-6-ethyl-4,7-diazaspiro[2.5]oct-4-yl]-3-(2,6-dichlorophenyl)-1,2-oxazol-4-yl}carbonyl)-1H-indol-4-yl]prop-2-enoic acid] | 98 nM | 33% | 45 nM |
| C=CC(=O)N1CCC(c2onc(-c3c(Cl)cc(Cl)cc3Cl)c2C(=O)c2cn(C)c3c(/C=C/C(=O)O)cccc23)CC1 [Example 166, (2E)-3-(3-{[5-(1-Acryloylpiperidin-4-yl)-3-(2,4,6-trichlorophenyl)-1,2-oxazol-4-yl]carbonyl}-1-methyl-1H-indol-7-yl)prop-2-enoic acid] | 141 nM | 81% | 299 nM |
| Cn1cc(C(=O)c2c(-c3c(Cl)cc(Cl)cc3Cl)noc2C(C)(C)C)c2ccc3ccc(C(=O)O)cc3c21 [Example 167, 3-{[5-tert-Butyl-3-(2,4,6-trichlorophenyl)-1,2-oxazol-4-yl]carbonyl}-1-methyl-1H-benzo[g]indole-8-carboxylic acid] | 196 nM | 87% | 195 nM |
